Results published in ChEMBL document CHEMBL1145362, “Structure-activity relationships of SERMs optimized for uterine antagonism and ovarian safety” (Bioorg Med Chem Lett, 2007).

How the values were obtained:
Ishikawa [1] = test: Increase in estrogen stimulation in human Ishikawa cells by alkaline phosphatase quantitation at 1 uM relative to control; type: functional
Rattus norvegicus [2] = test: Inhibition of estradiol-induced increase in uterine wet weight in orally dosed Sprague-Dawley rat after 3 days; type: functional; conditions: po, 72 h
Rattus norvegicus [3] = test: Inhibition of estrogen stimulation in Sprague-Dawley rat at 10 mg/kg; type: functional
Estrogen receptor beta = Estrogen receptor beta (Homo sapiens, UniProt Q92731); test: Displacement of [3H]estradiol from human recombinant ERbeta
Estrogen receptor = biological target: T1, Estrogen receptor (Homo sapiens, UniProt P03372)
T1 sequence (P03372 whole entry): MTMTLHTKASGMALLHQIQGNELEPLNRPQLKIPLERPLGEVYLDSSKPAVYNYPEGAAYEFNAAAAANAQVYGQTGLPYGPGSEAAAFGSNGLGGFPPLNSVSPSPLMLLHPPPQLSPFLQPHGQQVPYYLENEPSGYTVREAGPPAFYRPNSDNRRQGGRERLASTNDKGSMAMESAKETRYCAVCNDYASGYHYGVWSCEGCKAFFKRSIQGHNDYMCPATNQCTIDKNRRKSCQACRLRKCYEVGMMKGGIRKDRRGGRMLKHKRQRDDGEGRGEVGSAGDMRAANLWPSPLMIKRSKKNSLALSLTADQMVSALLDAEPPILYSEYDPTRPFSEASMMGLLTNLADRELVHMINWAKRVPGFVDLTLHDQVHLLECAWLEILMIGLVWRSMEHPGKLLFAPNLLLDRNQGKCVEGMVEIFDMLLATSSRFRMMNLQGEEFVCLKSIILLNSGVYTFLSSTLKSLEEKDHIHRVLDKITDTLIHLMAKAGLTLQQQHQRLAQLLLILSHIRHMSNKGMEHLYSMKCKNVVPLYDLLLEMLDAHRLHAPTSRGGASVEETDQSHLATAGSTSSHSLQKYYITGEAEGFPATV
Description: Displacement of [3H]estradiol from human recombinant ERalpha

Ishikawa [4] = test: Inhibition of estrogen stimulation in human Ishikawa cells by alkaline phosphatase quantitation; type: functional, cell-based; conditions: for IC50: Homo sapiens, Ishikawa
[5] = Drug level in Sprague-Dawley rat plasma at 10 mg/kg, po after 6 hrs; type: ADME, organism-based; set-up: dose 10 mg/kg, route oral; conditions: read-out: Drug uptake
[6] = Drug level in Sprague-Dawley rat brain at 10 mg/kg, po after 6 hrs; type: ADME, organism-based; set-up: dose 10 mg/kg, route oral; conditions: read-out: Drug uptake
[7] = Ratio of log of drug level in brain to blood in Sprague-Dawley rat; type: ADME, tissue-based; conditions: read-out: logBB (converted)
Rattus norvegicus [8] = test: Increase in uterine wet weight in Sprague-Dawley rat at 0.1 mg/kg; type: functional

Estrogen receptor beta, sequence (Q92731 whole entry): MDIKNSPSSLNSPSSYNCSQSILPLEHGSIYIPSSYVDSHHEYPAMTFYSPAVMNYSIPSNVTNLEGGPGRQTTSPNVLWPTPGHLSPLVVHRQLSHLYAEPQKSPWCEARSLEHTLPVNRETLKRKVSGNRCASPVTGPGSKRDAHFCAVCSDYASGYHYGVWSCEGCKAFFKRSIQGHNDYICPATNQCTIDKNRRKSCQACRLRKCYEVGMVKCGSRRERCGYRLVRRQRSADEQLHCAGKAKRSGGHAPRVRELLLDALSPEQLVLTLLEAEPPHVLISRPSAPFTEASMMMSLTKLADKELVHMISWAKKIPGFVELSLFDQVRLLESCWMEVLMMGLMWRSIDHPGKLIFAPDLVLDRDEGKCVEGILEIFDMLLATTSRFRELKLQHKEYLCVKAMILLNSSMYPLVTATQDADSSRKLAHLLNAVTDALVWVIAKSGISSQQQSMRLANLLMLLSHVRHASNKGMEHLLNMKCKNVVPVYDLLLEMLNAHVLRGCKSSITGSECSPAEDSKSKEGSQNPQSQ

| Structure (SMILES) | Efficacy (Ishikawa [1]) | ED50 (Rattus norvegicus [2]) | ED50 (Rattus norvegicus [3]) | inhibition in vivo at 10 mg/kg (Rattus norvegicus [3]) | Ki (Estrogen receptor beta) | Ki (Estrogen receptor) | Efficacy (Ishikawa [4]) | IC50 (Ishikawa [4]) | concentration at 6 h [5] | concentration at 6 h [6] | Kp [7] | Fold change (Rattus norvegicus [8]) |
| --- | --- | --- | --- | --- | --- | --- | --- | --- | --- | --- | --- | --- |
| CC(C)c1ccc(-c2sc3cc(O)ccc3c2Oc2ccc(OCCN3CCCCC3)cc2)cc1 | 29% | 0.16 mg/kg | < 1 mg/kg | 83% | 0.63 nM | 0.091 nM | 95% | 16.2 nM | – | – | – | – |
| Oc1ccc(-c2ccc3cc(O)ccc3c2Oc2ccc(OCCN3CCCCC3)cc2)cc1 | 13% | 0.3 mg/kg | < 1 mg/kg | 83% | 0.48 nM | 0.32 nM | 96% | 4.7 nM | 277 ng/mL | 47 ng/g | 0.17 | – |
| CS(=O)(=O)C1CC=C(c2ccc3cc(O)ccc3c2Oc2ccc(OCCN3CCCCC3)cc2)CC1 (centres undefined) | 24% | 0.26 mg/kg | < 1 mg/kg | 83% | 2.69 nM | 1.09 nM | 99% | 8 nM | – | – | – | – |
| Oc1cccc(-c2ccc3cc(O)ccc3c2Oc2ccc(OCCN3CCCCC3)cc2)c1 | 26% | 0.13 mg/kg | < 1 mg/kg | 83% | 0.36 nM | 0.21 nM | 100% | 2.1 nM | 211 ng/mL | 57 ng/g | 0.269 | – |
| CC(C)S(=O)(=O)c1ccc(-c2ccc3cc(O)ccc3c2Oc2ccc(OCCN3CCCCC3)cc2)cc1 | 11% | 0.37 mg/kg | < 1 mg/kg | 83% | 2.17 nM | 0.73 nM | 96% | 4.9 nM | – | – | – | – |
| O=S1(=O)CC=C(c2ccc3cc(O)ccc3c2Oc2ccc(OCCN3CCCCC3)cc2)CC1 | 19% | 0.25 mg/kg | < 1 mg/kg | 83% | 2.1 nM | 1.03 nM | 98% | 7.2 nM | – | – | – | – |
| CN(C)C(=O)c1ccc(-c2ccc3cc(O)ccc3c2Oc2ccc(OCCN3CCCCC3)cc2)cc1 | 25% | 0.19 mg/kg | < 1 mg/kg | 83% | 1.16 nM | 0.57 nM | 95% | 6.7 nM | – | – | – | – |
| CS(=O)(=O)c1ccc(-c2sc3cc(O)ccc3c2Oc2ccc(OCCN3CCCCC3)cc2)cc1 | 24% | 0.62 mg/kg | < 1 mg/kg | 83% | 13.6 nM | 0.63 nM | 97% | 22.2 nM | – | – | – | – |
| CN(C)S(=O)(=O)c1ccc(-c2ccc3cc(O)ccc3c2Oc2ccc(OCCN3CCCCC3)cc2)cc1 | 27% | 0.44 mg/kg | < 1 mg/kg | 83% | 1.69 nM | 0.4 nM | 99% | 2.8 nM | 108 ng/mL | 46 ng/g | 0.427 | – |
| Oc1ccc2c(Oc3ccc(OCCN4CCCCC4)cc3)c(-c3cccc(F)c3)ccc2c1 | 15% | 0.23 mg/kg | < 1 mg/kg | 83% | 0.16 nM | 0.18 nM | 97% | 4.8 nM | 137 ng/mL | 730 ng/g | 5.37 | – |
| C#CC1(O)CC[C@H]2[C@@H]3CCc4cc(O)ccc4[C@H]3CC[C@@]21C (single isomer, unassigned) [ETHINYL ESTRADIOL] | – | – | – | – | – | – | – | – | – | – | – | 3 |
| CCS(=O)(=O)c1ccc(-c2ccc3cc(O)ccc3c2Oc2ccc(OCCN3CCCCC3)cc2)cc1 | 19% | 0.14 mg/kg | < 1 mg/kg | 83% | 4.19 nM | 1.22 nM | 95% | 6.1 nM | 357 ng/mL | 43 ng/g | 0.12 | – |
| CCS(=O)(=O)c1ccc(-c2sc3cc(O)ccc3c2Oc2ccc(OCCN3CCCCC3)cc2)cc1 | 16% | 0.56 mg/kg | < 1 mg/kg | 83% | 15.7 nM | – | 95% | 14.5 nM | – | – | – | – |
| CS(=O)(=O)c1ccc(-c2ccc3cc(O)ccc3c2Oc2ccc(OCCN3CCCCC3)cc2)cc1 | – | – | – | – | – | – | – | – | 660 ng/mL | 103 ng/g | 0.155 | – |
| Oc1ccc2c(Oc3ccc(OCCN4CCCCC4)cc3)c(-c3ccc(F)c(F)c3)ccc2c1 | 13% | 0.058 mg/kg | < 1 mg/kg | 83% | 0.29 nM | 0.2 nM | 96% | 3.9 nM | 418 ng/mL | 3490 ng/g | 8.32 | – |
| N#Cc1cccc(-c2ccc3cc(O)ccc3c2Oc2ccc(OCCN3CCCCC3)cc2)c1 | 23% | 0.37 mg/kg | < 1 mg/kg | 83% | 0.35 nM | 0.24 nM | 94% | 18.5 nM | 360 ng/mL | 529 ng/g | – | – |
| O=S1(=O)CCC(c2ccc3cc(O)ccc3c2Oc2ccc(OCCN3CCCCC3)cc2)CC1 | 27% | 0.34 mg/kg | < 1 mg/kg | 83% | 4.11 nM | 1.89 nM | 93% | 15.7 nM | – | – | – | – |
| Oc1ccc2c(Oc3ccc(OCCN4CCCCC4)cc3)c(-c3ccc(F)cc3)ccc2c1 | 21% | 0.015 mg/kg | < 1 mg/kg | 83% | 0.28 nM | 0.24 nM | 93% | 3.2 nM | 151 ng/mL | 2690 ng/g | 17.8 | – |
